The results in this text go back to US20080241279A1, “Materials and methods of using calcium for reduction of inflammation” (General Mills, Inc., priority 2004, published 2008).

The conditions of this test: about 1200 mg/day calcium, about −500 kcal diet, about 12 weeks; control group about 20%.

Protocol: For example, about eighty (80) obese, but otherwise healthy, men and women (average baseline BMI about 34 kg/m2) with an average CRP of about 6.0 mg/L at baseline could be randomized to about 2 groups for about a 12 week intervention. Both groups would consume reduced calorie diets (about −500 kcal) to promote weight loss, with the calcium intake in “the control group” adjusted to about 500 mg/day and in “the intervention group” adjusted to about 1200 mg/day using a calcium source. […] DEXA and hs-CRP measurement can be performed at baseline and about 12 weeks.

For the compound `O=C([O-])[O-].[Ca+2]` [calcium carbonate], the “fat loss from trunkal region” value is given as “about 50%”.
